In publication PMC10046961, “High-Throughput Screening Assay for Detecting Drug-Induced Changes in Synchronized Neuronal Oscillations and Potential Seizure Risk Based on Ca^2+ Fluorescence Measurements in Human Induced Pluripotent Stem Cell (hiPSC)-Derived Neuronal 2D and 3D Cultures” (Cells, 2023):
Where two headings read alike, the source gives them in different places. Marks after values point to notes of the source that are not given here.

Experiments:
[1] = test system: hiPSC-derived neurons co-cultured with human primary astrocytes in 2D; experiment: Ca2+ transient oscillation assay (FDSS), 2D co-culture; assay type: cell-based; conditions: for activation at 3.7 µM / activation at 11.11 µM / activation at 33.33 µM / activation at 100 µM: Homo sapiens, 1 h, 60 min
Procedure, shortened: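 Cultures were 10,000 CW50065 hiPSC excitatory neurons plus 2500 primary human astrocytes per well. Recordings used Cal-520 dye in HBSS/HEPES/glucose at 37 °C, with a 470/540 nm read at 2 Hz. Oscillations were stabilized with 0.04% DMSO, read for 20 min, then read again 60 min after compound addition (final DMSO 0.1%).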

[2] = ref PharmaPendium, cited from earlier work
[3] = test system: hiPSC-derived neurons co-cultured with human primary astrocytes in 3D; experiment: Ca2+ transient oscillation assay (FDSS), 3D spheroids; assay type: cell-based; conditions: 60 min
Procedure, shortened: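 Fura-2 fluorescence was read twice for 20 min each: a baseline 10 min after 0.04% DMSO, and again 60 min after compound addition at nominal final concentration. The 3D co-cultures (1:1 hiPSC neurons from a donor and human astrocytes, 8000 each) matured 5 weeks in BrainPhys medium after a 1-week differentiation.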

[4] = read-out: Area under the curve - 2D Mean
[5] = read-out: Peak amplitude - 2D Mean
[6] = read-out: Peak-to-peak interval - 2D Mean

Compound: NS(=O)(=O)c1cc2c(cc1Cl)NC(C1CC3C=CC1C3)NS2(=O)=O (stereo not shown) [Cyclothiazide]
- effect on peak number / Ca2+ neuronal oscillations, in words ([1]; 2D format): significantly increased peak number
- activation at 3.7 µM [1, 4]: 48%
- activation at 3.7 µM ([1]; read-out: Peak Number—2D Mean): 2.7%
- activation at 3.7 µM [1, 5]: 12.3%
- activation at 3.7 µM ([1]; read-out: Peak width - 2D Mean): 50.8%
- activation at 3.7 µM [1, 6]: 9.2%
- activation at 11.11 µM [1, 4]: 18.7%
- activation at 11.11 µM ([1]; read-out: Peak Number—2D Mean): 178%
- activation at 11.11 µM [1, 5]: -0.5%
- activation at 11.11 µM ([1]; read-out: Peak width - 2D Mean): 24.5%
- activation at 11.11 µM [1, 6]: -53.3%
- activation at 33.33 µM [1, 4]: -9.3%
- activation at 33.33 µM ([1]; read-out: Peak Number—2D Mean): -25.2%
- activation at 33.33 µM [1, 5]: -24%
- activation at 33.33 µM ([1]; read-out: Peak width - 2D Mean): 208%
- activation at 33.33 µM [1, 6]: 0.3%
- activation at 100 µM [1, 4]: -53.8%
- activation at 100 µM ([1]; read-out: Peak Number—2D Mean): -82%
- activation at 100 µM [1, 5]: -72.8%
- activation at 100 µM ([1]; read-out: Peak width - 2D Mean): -17.3%
- activation at 100 µM [1, 6]: -70.3%
- Free Cmax ([2]; Table 1, peak plasma concentration in men, free therapeutic Cmax): 30 µM
- Free Cmax ([2]; Table 2, highest plasma concentration in humans after the therapeutic dose): 30 µM
- Area under the curve - 3D Mean ([3]; 3.7 µM): 135.8 % change from baseline
- Peak Number—3D Mean ([3]; 3.7 µM): 0.0 % change from baseline
- Peak amplitude - 3D Mean ([3]; 3.7 µM): 126.0 % change from baseline
- Peak width - 3D Mean ([3]; 3.7 µM): 0.7 % change from baseline
- Peak-to-peak interval - 3D Mean ([3]; 3.7 µM): 6.7 % change from baseline
- Area under the curve - 3D Mean ([3]; 11.11 µM): 187.3 % change from baseline
- Peak Number—3D Mean ([3]; 11.11 µM): 21.5 % change from baseline
- Peak amplitude - 3D Mean ([3]; 11.11 µM): 139.0 % change from baseline
- Peak width - 3D Mean ([3]; 11.11 µM): 23.6 % change from baseline
- Peak-to-peak interval - 3D Mean ([3]; 11.11 µM): −14.5 % change from baseline
- Area under the curve - 3D Mean ([3]; 33.33 µM): 245.1 % change from baseline
- Peak Number—3D Mean ([3]; 33.33 µM): 63.6 * % change from baseline
- Peak amplitude - 3D Mean ([3]; 33.33 µM): 113.7 % change from baseline
- Peak width - 3D Mean ([3]; 33.33 µM): 64.7 % change from baseline
- Peak-to-peak interval - 3D Mean ([3]; 33.33 µM): −30.0 % change from baseline
- Area under the curve - 3D Mean ([3]; 100 µM): 204.6 % change from baseline
- Peak Number—3D Mean ([3]; 100 µM): 102.9 ** % change from baseline
- Peak amplitude - 3D Mean ([3]; 100 µM): 83.6 % change from baseline
- Peak width - 3D Mean ([3]; 100 µM): 80.0 % change from baseline
- Peak-to-peak interval - 3D Mean ([3]; 100 µM): −49.3 % change from baseline
